Measurements from patent US20260325605A1, “INHIBITORS” (Zealand Pharma A/S, priority 2022, published 2026).

Columns and labels:
[1] = target: T1, Kv1.3 (Homo sapiens, UniProt P22001); assay: Patch clamp assay (QPatch), Kv1.3; format: cell-based; settings: CHO cells stably expressing human Kv1.3, read-out: Potency IC50, Kv1.3
T1 construct: expressed in transfected cells

[2] = tested on: T-cell activation in rat whole blood; assay: Example 4: IL-17A release in thapsigargin stimulated rat whole blood; format: cell-based, rat (Lewis or Sprague-Dawley); settings: 24 Hr, at least 2 replicates, unit inferred, read-out: IC50 (inhibition of IL-17A release)
Excerpt: Rat whole blood was used to assess the potency of Kv1.3 inhibitor peptides on T-cell activation as determined by IL-17A release after stimulation with thapsigargin. Addition of thapsigargin results in activation of a signalling cascade ending up in activation of T cell proliferation and cytokine production where the Kv1.3 ion channel plays a key role, so activity of Kv1.3 inhibitors in primary cells can be measured in this experimental system.
Rat whole blood was obtained from healthy, naïve Lewis or Sprague-Dawley rats that were terminally bleed from the heart using Sodium Heparin blood sampling tubes for collection. Peptides were diluted to 4× final testing concentrations in assay buffer (DMEM+GlutaMAX), GlutaMAX is a medium comprising 3.97 mM L-alanine-L-glutamine (Gibco Cat #61965026) supplemented with 25 mM HEPES buffer, 1 mM Sodium Pyruvate, 100 units/ml Penicillin, 100 μg/ml Streptomycin and 0.05% Casein from bovine milk (Sigma-Aldrich)) and 25 μl was added to wells of a 96 well plate. Then 50 μl whole rat blood was added and incubated for minimum 5 minutes at room temperature to allow compound binding. Then 25 μl 40 μM thapsigargin diluted in assay buffer was added to all wells of the assay plates to activate the cells, followed by incubation for 24 Hr at 37° C./5% CO2 in a humidified box. The assay plates were centrifuged for 10 min at 300 g at 4° C. and the supernatants were transferred to new plates. The concentrations of IL-17A released to the supernatants were measured using a Rat IL-17A ELISA Kit (Abcam Cat #ab214028) as recommended by the manufacturer. Samples were diluted 2.5-fold by transferring 20 μl of the supernatants to wells on ELISA plates containing 30 μl buffer 75BS from the detection kit.
Data from peptides eliciting an inhibition of IL-17A were normalised relative to full thapsigargin activation (no inhibitor added) and no activation controls (addition of assay buffer instead of thapsigargin) to calculate the IC50 from the concentration response curve.
Results are shown in Table 5, expressed as IC50, with standard deviation (IC50_SD). All values are derived from at least 2 replicates. The biological effects ex vivo show a correlation with the potency of the peptides.

[3] = target: T2, Kv1.1 (Homo sapiens, UniProt Q09470); assay: Patch clamp assay (QPatch), Kv1.1; format: cell-based; settings: for IC50: QPatch, CHO cells stably expressing human Kv1.1, read-out: Potency IC50, Kv1.1; for Selectivity Kv1.1/Kv1.3: ratio of IC50 Kv1.1/Kv1.3
T2 construct: expressed in transfected cells
T2 sequence (Q09470 whole entry): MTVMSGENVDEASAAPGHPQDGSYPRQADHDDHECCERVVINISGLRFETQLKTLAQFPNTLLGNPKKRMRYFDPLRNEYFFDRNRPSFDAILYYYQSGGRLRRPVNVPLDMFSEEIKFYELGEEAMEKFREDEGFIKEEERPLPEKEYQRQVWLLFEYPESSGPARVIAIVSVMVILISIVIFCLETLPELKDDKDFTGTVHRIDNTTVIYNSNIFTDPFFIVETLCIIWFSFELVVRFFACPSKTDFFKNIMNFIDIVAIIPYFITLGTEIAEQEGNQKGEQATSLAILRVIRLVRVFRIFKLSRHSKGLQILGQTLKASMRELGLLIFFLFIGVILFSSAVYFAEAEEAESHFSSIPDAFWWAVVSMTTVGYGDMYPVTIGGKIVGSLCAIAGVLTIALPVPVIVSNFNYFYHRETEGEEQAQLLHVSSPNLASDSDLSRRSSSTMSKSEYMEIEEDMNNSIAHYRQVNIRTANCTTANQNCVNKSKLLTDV
Protocol: Selectivity of Kv1.3 inhibitor peptides for Kv1.3 over other potassium ion channels (Kv1.1, Kv1.2 and Kv1.6) was determined using patch clamp assay.
Chinese Hamster Ovary (CHO) cell lines stably expressing exogenous human α-subunits of each potassium ion channel were grown and passaged under standard culture conditions.
The automated, chip-based planar patch clamp device QPatch® was used to quantitate the ionic currents. All recordings were made in the conventional whole-cell configuration after establishment of gigaohm seals. […] During experiments 0.1% (v/v) BSA was included as a vehicle in all external recording solutions. Currents were elicited from a holding potential of −80 mV using a voltage protocol, which shifted the voltage to 30 mV for 500 ms every 15 s.
Concentration-response relationships were established by cumulatively applying seven escalating concentrations of test sample to an individual cell with a recording period of 2 min per compound application.
The efficacy was determined as the mean charge for the last three sweeps at the end of each concentration application period from the cursor positions. The percent inhibition for each test dose application period was calculated as the reduction in mean cursor value (charge) relative to the cursor value measured at the end of the vehicle period and used to calculate the IC50 from the concentration response curve.

[4] = target: T3, Kv1.2 (Homo sapiens, UniProt P16389); assay: Patch clamp assay (QPatch), Kv1.2; format: cell-based; settings: for IC50: QPatch, CHO cells stably expressing human Kv1.2, read-out: Potency IC50, Kv1.2; for Selectivity Kv1.2/Kv1.3: ratio of IC50 Kv1.2/Kv1.3
T3 construct: expressed in transfected cells
T3 sequence (P16389 whole entry): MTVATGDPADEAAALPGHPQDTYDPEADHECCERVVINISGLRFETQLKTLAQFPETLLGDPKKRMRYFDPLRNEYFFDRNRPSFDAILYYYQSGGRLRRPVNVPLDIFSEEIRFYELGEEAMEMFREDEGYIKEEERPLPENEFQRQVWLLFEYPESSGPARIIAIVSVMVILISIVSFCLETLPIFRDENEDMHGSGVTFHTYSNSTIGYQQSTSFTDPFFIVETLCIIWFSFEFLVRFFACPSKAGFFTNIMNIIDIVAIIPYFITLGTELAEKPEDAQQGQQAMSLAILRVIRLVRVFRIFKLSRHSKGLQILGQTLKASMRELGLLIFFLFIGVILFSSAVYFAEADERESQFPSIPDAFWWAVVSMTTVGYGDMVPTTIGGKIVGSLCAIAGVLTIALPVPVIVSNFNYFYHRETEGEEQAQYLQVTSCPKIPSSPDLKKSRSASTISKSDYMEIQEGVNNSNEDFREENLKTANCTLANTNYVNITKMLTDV

[5] = target: T4, Kv1.6 (Homo sapiens, UniProt P17658); assay: Patch clamp assay (QPatch), Kv1.6; format: cell-based; settings: for IC50: QPatch, CHO cells stably expressing human Kv1.6, read-out: Potency IC50, Kv1.6; for Selectivity Kv1.6/Kv1.3: ratio of IC50 Kv1.6/Kv1.3
T4 construct: expressed in transfected cells
T4 sequence (P17658 whole entry): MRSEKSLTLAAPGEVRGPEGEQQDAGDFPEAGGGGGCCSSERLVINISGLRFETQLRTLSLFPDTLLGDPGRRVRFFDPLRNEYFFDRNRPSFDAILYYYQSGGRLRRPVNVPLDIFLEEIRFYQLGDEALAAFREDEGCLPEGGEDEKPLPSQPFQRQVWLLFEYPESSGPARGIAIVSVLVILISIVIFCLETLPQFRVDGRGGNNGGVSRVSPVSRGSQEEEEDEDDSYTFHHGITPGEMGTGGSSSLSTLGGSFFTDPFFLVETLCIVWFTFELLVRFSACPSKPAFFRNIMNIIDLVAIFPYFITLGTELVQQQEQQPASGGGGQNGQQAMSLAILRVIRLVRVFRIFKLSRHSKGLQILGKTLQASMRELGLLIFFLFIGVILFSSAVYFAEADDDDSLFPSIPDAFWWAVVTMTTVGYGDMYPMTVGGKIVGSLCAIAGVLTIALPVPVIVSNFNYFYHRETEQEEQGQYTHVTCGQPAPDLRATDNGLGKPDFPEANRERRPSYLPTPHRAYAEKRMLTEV

T1 sequence (P22001 whole entry): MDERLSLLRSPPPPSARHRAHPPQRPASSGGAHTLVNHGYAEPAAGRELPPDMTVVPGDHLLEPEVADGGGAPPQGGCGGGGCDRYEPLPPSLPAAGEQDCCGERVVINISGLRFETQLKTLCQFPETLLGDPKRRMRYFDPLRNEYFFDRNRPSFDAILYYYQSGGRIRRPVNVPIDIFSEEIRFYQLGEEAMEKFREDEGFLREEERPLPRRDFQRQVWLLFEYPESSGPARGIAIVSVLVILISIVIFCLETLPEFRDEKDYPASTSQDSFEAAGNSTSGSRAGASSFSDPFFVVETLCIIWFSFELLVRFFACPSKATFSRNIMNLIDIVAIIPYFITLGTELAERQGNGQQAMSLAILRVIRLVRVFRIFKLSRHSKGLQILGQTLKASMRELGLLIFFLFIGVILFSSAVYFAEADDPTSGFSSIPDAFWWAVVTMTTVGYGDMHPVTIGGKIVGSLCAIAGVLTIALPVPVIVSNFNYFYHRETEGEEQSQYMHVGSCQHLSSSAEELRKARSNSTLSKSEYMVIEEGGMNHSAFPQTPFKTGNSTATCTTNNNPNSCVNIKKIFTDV

Row | Substance | IC50 [1] | IC50 [2] | IC50 [3] | Selectivity Kv1.1/Kv1.3 [3] | IC50 [4] | Selectivity Kv1.2/Kv1.3 [4] | IC50 [5] | Selectivity Kv1.6/Kv1.3 [5]
1 | H-V[Nle]D[Nle]RC(1)SASVEC(2)KQKC(3)LKAIGSIFGKC(1)[Nle]NKKC(2)KC(3)YPR-NH2 [Peptide 69] | 0.32 nM | 0.98 nM | – | – | – | – | – | –
2 | H-NMDMRC(1)SASVEC(2)KQKC(3)LKAIGSIFGKC(1)MNKKC(2)HC(3)YPR-NH2 [Peptide 38] | 0.19 nM | 0.77 nM | > 3000 nM | >16100 | 338 nM | 1816 | > 3000 nM | >16100
3 | H-S[Nle]D[Nle]RC(1)SASVEC(2)KQKC(3)LKAIGSIFGKC(1)[Nle]NKKC(2)KC(3)YPR-NH2 [Peptide 67] | 0.18 nM | 0.47 nM | – | – | – | – | – | –
4 | H-NMDMRC(1)SASREC(2)KQKC(3)LKAIGSIFGKC(1)MNKKC(2)KC(3)YPR-NH2 [Peptide 28] | 0.12 nM | 0.68 nM | > 3000 nM | >25900 | 11 nM | 94 | 206 nM | 1778
5 | H-H[Nle]D[Nle]RC(1)SASVEC(2)KQKC(3)LKAIGSIFGKC(1)[Nle]NKKC(2)KC(3)YPR-NH2 [Peptide 65] | 0.25 nM | 1.2 nM | – | – | – | – | – | –
6 | H-NMDMRC(1)SASVEC(2)LQKC(3)LKAIGSIFGKC(1)MNKKC(2)KC(3)YPR-NH2 [Peptide 30] | 0.4 nM | 0.76 nM | > 3000 nM | >7400 | 874 nM | 2163 | > 3000 nM | >7400
7 | H-C(1)SASVEC(2)KQKC(3)LKAIGSIFGKC(1)MNKKC(2)KC(3)YPR-OH [Peptide 124] | 2.09 nM | 1.9 nM | > 3000 nM | >1400 | 1830 nM | 878 | > 3000 nM | >1400
8 | Ac-LRC(1)SASVEC(2)KQKC(3)LKAIGSIFGKC(1)[Nle]NKKC(2)KC(3)YPR-NH2 [Peptide 114] | 0.35 nM | 0.37 nM | > 3000 nM | >8700 | 122 nM | 352 | 2460 nM | 7096
9 | H-PIE[Nle]RC(1)SASVEC(2)KQKC(3)LKAIGSIFGKC(1)[Nle]NKKC(2)KC(3)YPR-OH [Peptide 99] | 0.39 nM | 1.8 nM | > 3000 nM | >7800 | 1760 nM | 4561 | > 3000 nM | >7800
10 | H-S[Nle]D[Nle]RC(1)SASVEC(2)KQKC(3)LKAIGSIFGKC(1)MNKKC(2)RC(3)YPR-NH2 [Peptide 77] | 0.13 nM | 0.86 nM | – | – | – | – | – | –
11 | H-[Nle]D[Nle]RC(1)SASVEC(2)KQKC(3)LKAIGSIFGKC(1)[Nle]NKKC(2)KC(3)YPR-OH [Peptide 97] | 0.17 nM | 0.55 nM | > 3000 nM | >17800 | 1860 nM | 11034 | > 3000 nM | >17800
12 | H-P[Nle]E[Nle]RC(1)SASVEC(2)KQKC(3)LAAIGSIFGKC(1)[Nle]NKKC(2)KC(3)YPR-NH2 [Peptide 101] | 0.18 nM | 0.34 nM | > 3000 nM | >16200 | 311 nM | 1689 | > 3000 nM | >16200
13 | H-NMDMRC(1)SASVQC(2)KQKC(3)LKAIGSIFGKC(1)MNKKC(2)KC(3)YPR-NH2 [Peptide 29] | 0.2 nM | 0.53 nM | > 3000 nM | >15200 | 16 nM | 83 | 252 nM | 1272
14 | H-NMDMRC(1)SASVEC(2)KLKC(3)LKAIGSIFGKC(1)MNKKC(2)KC(3)YPR-NH2 [Peptide 33] | 0.38 nM | 0.75 nM | – | – | – | – | – | –
15 | H-AAAISCVGSPECPPKCRAQGCKNGKCMNRKCKCYYC-NH2 [Vm24, reference compound] | 0.15 nM | – | 0.097 nM | 0.65 | 4.7 nM | 31 | 21 nM | 139
16 | H-Y[Nle]D[Nle]RC(1)SASVEC(2)KQKC(3)LKAIGSIFGKC(1)[Nle]NKKC(2)KC(3)YPR-NH2 [Peptide 66] | 0.14 nM | 1.1 nM | – | – | – | – | – | –
17 | H-NMDMRC(1)SASVEC(2)KQKC(3)LAIGSIFGKC(1)MNKKC(2)KC(3)YPR-NH2 [Peptide 55] | 2.41 nM | – | > 3000 nM | >1200 | 291 nM | 121 | > 3000 nM | >1200
18 | H-NMDMRC(1)SASVEC(2)KQKC(3)LKRIGSIFGKC(1)MNKKC(2)KC(3)YPR-NH2 [Peptide 57] | 0.3 nM | – | > 3000 nM | >9900 | 57 nM | 187 | 932 nM | 3062
19 | H-NMDMRC(1)KASVEC(2)KQKC(3)LKAIGSIFGKC(1)MNKKC(2)KC(3)YPR-NH2 [Peptide 26] | 0.09 nM | – | > 3000 nM | >34200 | 67 nM | 761 | 363 nM | 4144
20 | H-S[Nle]D[Nle]RC(1)SASVEC(2)AQSC(3)LKAIGSIFGKC(1)MNKKC(2)KC(3)YPR-NH2 [Peptide 81] | 0.21 nM | – | > 3000 nM | >14600 | 1150 nM | 5596 | > 3000 nM | >14600
21 | H-N[Nle]D[Nle]RC(1)SASVEC(2)KQKC(3)LKAIGSIFGKC(1)[Nle]NKKC(2)KC(3)YPR-NH2 [Peptide 41] | 0.26 nM | – | > 3000 nM | >11600 | 113 nM | 436 | 1830 nM | 7073
